Test results reported in paper PMC8617627, “Novel DYRK1A Inhibitor Rescues Learning and Memory Deficits in a Mouse Model of Down Syndrome” (Pharmaceuticals, 2021).
Read-outs that look alike come from different tables or passages of the source.

Columns and labels:
Assay in all cases: Kinase profile (33P ATP filter binding)
Format in all cases: biochemical
Aurora A = target: T1, Aurora A (Homo sapiens, UniProt O14965); conditions: for remaining activity at 1 µM / remaining activity at 100 µM: read-out: Remaining protein kinase activity
T1 sequence (O14965 1-403): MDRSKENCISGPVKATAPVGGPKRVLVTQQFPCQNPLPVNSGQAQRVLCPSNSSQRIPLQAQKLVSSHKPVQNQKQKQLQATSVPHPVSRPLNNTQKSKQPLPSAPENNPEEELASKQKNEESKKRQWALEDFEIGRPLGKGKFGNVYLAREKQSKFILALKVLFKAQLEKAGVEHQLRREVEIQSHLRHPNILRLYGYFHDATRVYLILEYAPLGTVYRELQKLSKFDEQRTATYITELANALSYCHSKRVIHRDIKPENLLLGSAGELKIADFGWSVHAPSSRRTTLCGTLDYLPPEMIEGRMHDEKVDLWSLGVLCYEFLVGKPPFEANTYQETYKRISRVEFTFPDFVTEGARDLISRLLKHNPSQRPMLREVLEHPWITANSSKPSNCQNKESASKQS
Protocol: (§1) The compounds were diluted to the appropriate concentration. The compounds were added to a “mother plate” consisting of samples, controls, and blanks. These serve as the source for “daughter plates” which are stored at −20 °C until assay initiation. Protein Kinases: Enzyme/Substrate mixture was added to the compound, and the compounds were incubated for five minutes at room temperature (RT). ^33P ATP was added to the compounds to initiate the assay. Orthophosphoric acid was added to the compounds to halt the assay. Assay components were harvested onto P81 filter plates, filter plates were air-dried, scintillation fluid was added to plates, and counts were read on a Topcount NXT. A mean percentage activity was calculated.

DDR2 = target: T2, DDR2 (Homo sapiens, UniProt Q16832); conditions: read-out: Remaining protein kinase activity
T2 sequence (Q16832 22-855): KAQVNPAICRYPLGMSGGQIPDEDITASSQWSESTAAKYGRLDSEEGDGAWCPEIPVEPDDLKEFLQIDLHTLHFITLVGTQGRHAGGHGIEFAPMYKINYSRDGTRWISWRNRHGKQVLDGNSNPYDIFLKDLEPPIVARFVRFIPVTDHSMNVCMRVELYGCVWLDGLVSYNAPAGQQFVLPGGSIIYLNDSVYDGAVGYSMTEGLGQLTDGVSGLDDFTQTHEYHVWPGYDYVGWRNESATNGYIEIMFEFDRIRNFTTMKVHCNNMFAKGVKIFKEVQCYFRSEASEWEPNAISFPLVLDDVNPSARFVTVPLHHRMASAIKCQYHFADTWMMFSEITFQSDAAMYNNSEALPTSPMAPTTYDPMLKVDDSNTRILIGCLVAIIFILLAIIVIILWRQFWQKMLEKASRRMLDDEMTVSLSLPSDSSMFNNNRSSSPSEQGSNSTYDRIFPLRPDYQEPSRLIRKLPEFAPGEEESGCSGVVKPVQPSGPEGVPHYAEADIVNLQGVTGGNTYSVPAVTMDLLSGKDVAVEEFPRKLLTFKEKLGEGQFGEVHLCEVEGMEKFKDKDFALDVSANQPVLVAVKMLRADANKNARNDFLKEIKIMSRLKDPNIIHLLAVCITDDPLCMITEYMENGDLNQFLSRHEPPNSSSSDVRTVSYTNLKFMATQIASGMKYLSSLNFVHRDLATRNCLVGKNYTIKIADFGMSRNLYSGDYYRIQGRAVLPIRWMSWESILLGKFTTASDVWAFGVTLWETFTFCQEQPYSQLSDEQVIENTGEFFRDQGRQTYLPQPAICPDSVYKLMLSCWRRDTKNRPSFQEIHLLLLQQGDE
Protocol: as §1

JNK1 = JNK1 (Homo sapiens, UniProt P45983)
Chain of JNK1 (P45983 whole entry, species assumed): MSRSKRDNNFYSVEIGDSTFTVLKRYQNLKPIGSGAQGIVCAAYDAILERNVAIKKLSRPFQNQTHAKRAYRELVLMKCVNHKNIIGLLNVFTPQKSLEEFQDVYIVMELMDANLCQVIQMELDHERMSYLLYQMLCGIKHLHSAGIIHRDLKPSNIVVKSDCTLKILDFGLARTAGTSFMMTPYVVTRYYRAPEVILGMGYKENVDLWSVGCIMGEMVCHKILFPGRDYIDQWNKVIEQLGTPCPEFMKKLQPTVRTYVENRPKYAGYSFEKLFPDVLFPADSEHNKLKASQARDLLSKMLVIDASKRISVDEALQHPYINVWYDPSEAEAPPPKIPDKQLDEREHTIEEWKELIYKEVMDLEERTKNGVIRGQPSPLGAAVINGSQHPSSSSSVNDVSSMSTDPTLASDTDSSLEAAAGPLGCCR
Protocol: as §1

PAK4 = PAK4 (Homo sapiens, UniProt O96013); conditions: read-out: Remaining protein kinase activity
Chain of PAK4 (O96013 whole entry): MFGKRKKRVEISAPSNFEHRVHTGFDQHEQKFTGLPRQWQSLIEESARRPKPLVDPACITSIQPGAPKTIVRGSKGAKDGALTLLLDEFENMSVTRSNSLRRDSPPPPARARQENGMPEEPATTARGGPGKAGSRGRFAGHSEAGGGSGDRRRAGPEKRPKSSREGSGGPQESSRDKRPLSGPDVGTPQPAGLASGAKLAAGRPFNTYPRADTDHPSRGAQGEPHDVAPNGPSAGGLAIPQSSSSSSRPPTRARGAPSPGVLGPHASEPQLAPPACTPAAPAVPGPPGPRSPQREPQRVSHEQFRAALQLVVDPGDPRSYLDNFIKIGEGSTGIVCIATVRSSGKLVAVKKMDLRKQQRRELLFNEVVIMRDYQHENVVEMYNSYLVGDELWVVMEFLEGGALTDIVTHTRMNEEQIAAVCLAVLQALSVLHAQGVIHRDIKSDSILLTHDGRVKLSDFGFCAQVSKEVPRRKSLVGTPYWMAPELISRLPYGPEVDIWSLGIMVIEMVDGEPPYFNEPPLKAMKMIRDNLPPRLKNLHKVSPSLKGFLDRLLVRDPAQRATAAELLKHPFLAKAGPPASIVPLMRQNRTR
Protocol: as §1

PRAK = target: T3, PRAK (Homo sapiens, UniProt Q8IW41); conditions: read-out: Remaining protein kinase activity
T3 sequence (Q8IW41 1-473): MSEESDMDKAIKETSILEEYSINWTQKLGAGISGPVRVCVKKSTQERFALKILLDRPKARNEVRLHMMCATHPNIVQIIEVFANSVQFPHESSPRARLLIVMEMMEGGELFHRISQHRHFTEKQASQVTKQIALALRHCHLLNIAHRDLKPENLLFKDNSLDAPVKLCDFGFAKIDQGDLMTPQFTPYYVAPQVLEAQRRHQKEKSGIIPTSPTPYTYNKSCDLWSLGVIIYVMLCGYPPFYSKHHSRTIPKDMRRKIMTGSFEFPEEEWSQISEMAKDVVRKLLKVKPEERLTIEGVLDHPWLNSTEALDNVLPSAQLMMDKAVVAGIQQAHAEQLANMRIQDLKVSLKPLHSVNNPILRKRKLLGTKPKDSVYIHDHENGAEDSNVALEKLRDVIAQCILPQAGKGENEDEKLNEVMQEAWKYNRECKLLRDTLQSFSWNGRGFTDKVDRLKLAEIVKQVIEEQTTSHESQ
Protocol: as §1

RIPK2 = RIPK2 (Homo sapiens, UniProt O43353); conditions: read-out: Remaining protein kinase activity
Chain of RIPK2 (O43353 whole entry): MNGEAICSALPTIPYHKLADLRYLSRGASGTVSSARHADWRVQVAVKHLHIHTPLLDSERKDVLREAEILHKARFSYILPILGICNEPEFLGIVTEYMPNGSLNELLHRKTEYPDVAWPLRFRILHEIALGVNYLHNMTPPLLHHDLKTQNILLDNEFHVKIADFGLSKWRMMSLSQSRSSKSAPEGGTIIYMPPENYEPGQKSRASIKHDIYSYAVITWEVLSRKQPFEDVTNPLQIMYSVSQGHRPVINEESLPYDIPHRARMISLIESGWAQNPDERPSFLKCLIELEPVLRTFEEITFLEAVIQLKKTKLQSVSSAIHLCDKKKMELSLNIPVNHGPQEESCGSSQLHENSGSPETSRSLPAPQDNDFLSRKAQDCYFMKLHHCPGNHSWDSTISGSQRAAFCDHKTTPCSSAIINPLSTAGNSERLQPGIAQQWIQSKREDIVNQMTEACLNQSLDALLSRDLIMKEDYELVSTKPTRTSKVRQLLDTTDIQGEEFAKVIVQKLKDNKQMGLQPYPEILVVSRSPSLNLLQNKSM
Protocol: as §1

STK33 = STK33 (Homo sapiens, UniProt Q9BYT3); conditions: read-out: Remaining protein kinase activity
Chain of STK33 (Q9BYT3 whole entry): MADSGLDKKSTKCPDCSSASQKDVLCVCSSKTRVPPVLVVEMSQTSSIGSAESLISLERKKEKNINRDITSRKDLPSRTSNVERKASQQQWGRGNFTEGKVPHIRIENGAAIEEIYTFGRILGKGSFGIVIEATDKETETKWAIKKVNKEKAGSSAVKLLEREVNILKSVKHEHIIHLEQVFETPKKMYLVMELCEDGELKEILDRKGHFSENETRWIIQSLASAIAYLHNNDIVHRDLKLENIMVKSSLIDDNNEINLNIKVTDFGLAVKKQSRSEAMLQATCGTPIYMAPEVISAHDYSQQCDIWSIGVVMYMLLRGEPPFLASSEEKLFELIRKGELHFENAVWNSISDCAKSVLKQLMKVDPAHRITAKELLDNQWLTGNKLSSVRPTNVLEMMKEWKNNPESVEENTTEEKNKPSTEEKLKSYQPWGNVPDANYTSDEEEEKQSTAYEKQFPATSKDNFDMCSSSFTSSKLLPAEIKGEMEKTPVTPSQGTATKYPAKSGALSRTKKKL
Protocol: as §1

TTBK2 = TTBK2 (Homo sapiens, UniProt Q6IQ55)
Chain of TTBK2 (Q6IQ55 whole entry): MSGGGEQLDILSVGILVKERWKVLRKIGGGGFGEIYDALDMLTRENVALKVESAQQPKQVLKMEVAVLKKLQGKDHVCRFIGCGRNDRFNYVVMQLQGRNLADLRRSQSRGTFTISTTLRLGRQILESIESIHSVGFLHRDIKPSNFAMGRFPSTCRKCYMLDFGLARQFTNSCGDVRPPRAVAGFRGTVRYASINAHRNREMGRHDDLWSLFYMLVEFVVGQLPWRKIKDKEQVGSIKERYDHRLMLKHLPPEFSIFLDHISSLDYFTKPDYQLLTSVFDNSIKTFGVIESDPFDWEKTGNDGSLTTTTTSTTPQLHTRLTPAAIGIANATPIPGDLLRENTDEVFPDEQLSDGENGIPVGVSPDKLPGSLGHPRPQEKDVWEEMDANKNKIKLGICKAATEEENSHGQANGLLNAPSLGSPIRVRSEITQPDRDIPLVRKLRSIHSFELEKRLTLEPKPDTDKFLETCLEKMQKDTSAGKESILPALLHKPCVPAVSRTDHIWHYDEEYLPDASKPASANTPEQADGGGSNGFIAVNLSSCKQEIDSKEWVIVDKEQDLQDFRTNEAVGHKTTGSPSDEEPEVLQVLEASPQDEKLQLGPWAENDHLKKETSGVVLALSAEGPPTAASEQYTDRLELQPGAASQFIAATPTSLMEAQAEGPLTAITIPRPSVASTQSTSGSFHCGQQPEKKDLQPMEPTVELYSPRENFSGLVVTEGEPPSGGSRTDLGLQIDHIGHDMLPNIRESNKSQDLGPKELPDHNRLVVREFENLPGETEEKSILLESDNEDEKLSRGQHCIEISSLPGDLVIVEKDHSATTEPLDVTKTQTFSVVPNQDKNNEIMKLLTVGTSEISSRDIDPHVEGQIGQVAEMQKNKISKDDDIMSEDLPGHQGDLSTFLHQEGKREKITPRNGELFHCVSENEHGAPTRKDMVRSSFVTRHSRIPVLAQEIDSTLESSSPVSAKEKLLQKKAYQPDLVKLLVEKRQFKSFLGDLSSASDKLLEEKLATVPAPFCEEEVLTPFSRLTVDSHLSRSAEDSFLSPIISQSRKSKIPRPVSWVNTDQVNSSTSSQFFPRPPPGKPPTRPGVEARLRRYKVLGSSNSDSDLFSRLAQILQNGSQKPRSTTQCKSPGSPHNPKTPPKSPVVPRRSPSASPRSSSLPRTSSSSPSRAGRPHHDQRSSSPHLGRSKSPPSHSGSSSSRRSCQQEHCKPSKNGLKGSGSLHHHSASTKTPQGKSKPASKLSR
Protocol: as §1

## COc1ccc2sc(-c3cncc(NC(C)=O)c3)nc2c1 [PST-001, N-(5-(5-Methoxybenzo[d]thiazol-2-yl)pyridin-3-yl)acetamide]
Aurora A; in words
  Effect on Aurora A: moderately activated
Aurora A
  remaining activity at 1 µM: 133%
  remaining activity at 100 µM: 136%
DDR2
  remaining activity at 1 µM: 98%
  remaining activity at 100 µM: 80%
JNK1; 1 μM
  Remaining protein kinase activity: 113%
JNK1; 100 μM
  Remaining protein kinase activity: 130%
PAK4
  remaining activity at 1 µM: 116%
  remaining activity at 100 µM: 98%
PRAK
  remaining activity at 1 µM: 114%
  remaining activity at 100 µM: 116%
RIPK2
  remaining activity at 1 µM: 109%
STK33
  remaining activity at 1 µM: 113%
  remaining activity at 100 µM: 112%
TTBK2; 1 μM
  Remaining protein kinase activity: 119%
TTBK2; 100 μM
  Remaining protein kinase activity: 117%

## COc1ccc2sc(-c3cncc(N)c3)nc2c1 [compound 1, 5-(5-Methoxybenzo[d]thiazol-2-yl)pyridin-3-amine]
Aurora A; Aurora A, 1 μM
  remaining activity at 1 µM: 132%
Aurora A; Aurora A, 100 μM
  remaining activity at 100 µM: 97%
DDR2; DDR2, 1 μM
  remaining activity at 1 µM: 107%
DDR2; DDR2, 100 μM
  remaining activity at 100 µM: 49%
JNK1; 1 μM
  Remaining protein kinase activity: 112%
JNK1; 100 μM
  Remaining protein kinase activity: 94%
PAK4; PAK4, 1 μM
  remaining activity at 1 µM: 109%
PAK4; PAK4, 100 μM
  remaining activity at 100 µM: 54%
PRAK; PRAK, 1 μM
  remaining activity at 1 µM: 128%
PRAK; PRAK, 100 μM
  remaining activity at 100 µM: 36%
RIPK2; RIPK2, 1 μM
  remaining activity at 1 µM: 104%
RIPK2; RIPK2, 100 μM
  remaining activity at 100 µM: 20%
STK33; STK33, 1 μM
  remaining activity at 1 µM: 111%
STK33; STK33, 100 μM
  remaining activity at 100 µM: 57%
TTBK2; 1 μM
  Remaining protein kinase activity: 123%
TTBK2; 100 μM
  Remaining protein kinase activity: 103%
